This is an account of results in US8765702B2, “Composition and methods for modulating cell proliferation and cell death” (Rosetta Genomics Ltd., priority 2007, dated 2014).

The subject of one series is U2OS cells. Kind of series: Apoptosis by microscopy and FACS-based sub-G1 DNA content. It is filed as cell-based, human.
Series [1] concerns Notch pathway in A172 cells. Kind of series: qRT-PCR of Notch pathway mRNAs (DLL1, Jag1, Notch1, Hey1). The class given is cell-based. The following applies: 72 hours after transfection; for mRNA levels of DLL1, Jag1 or Notch1: normalized to GAPDH. Here is the method: (B) A172 cells were transfected with either scrambled or anti-miR-34a LNA oligos. RNA was isolated 72 hours later, and subjected to qRT-PCR to determine relative levels of expression of DLL1, Jag1 and Notch1 (normalized to GAPDH).
(C) A172 cells were transfected with pcDNA3-pm34a-EST-MUT (MUT) or pcDNA3-pm34a-EST (EST). RNA extraction and analysis was as in (B).
(§1) RNA quantification was performed by real-time qRT-PCR in an ABI PRISM 7300 Sequence Detection System (Applied Biosystems) with SYBR Green Master Mix (Applied Biosystems). For mRNA quantification, cDNA produced with random hexamers and MMLV reverse transcriptase (Promega) from 10 ng of total RNA was subjected to RT-PCR using super SYBR-green ready mix (Applied Biosystems) and specific DNA primers (Table 1 for the EST, Table 2 for p21, Hdm2, GAPDH and HPRT). For small RNAs (U6, 5S, microRNAs), 50 ng total RNA was converted to cDNA using specific primers for reverse transcription (Ambion) and MMLV reverse transcriptase. Relative expression levels were determined by real-time qRT-PCR using super SYBR-green ready mix and specific primers (Ambion). Quantification was done using standard curves. All reactions were performed in duplicate.
A complementary, opposite effect on Hey1 expression was seen when miR-34a was over-expressed in A172 cells.

Series [2] deals with Notch pathway in MCF7 cells. The description is as above. It is filed as cell-based, human. Here is the method:
(D) MCF7 cells were transfected with scramble or anti-miR-34a LNA oligos. 24 h post-transfection, 20 μM Nutlin-3 was added to the half of the samples for additional 48 h. RNA extraction and analysis was as in (B).
as §1

Series [3] deals with EST-Prom-luc (miR-34a putative promoter). Description: Dual luciferase assay with EST-Prom-luc in HCT116 cells. The class given is cell-based, human. The following applies: HCT116 control (siLacZ) cells, 5-FU for 16 hours.
For series [4], the system named is p53 binding to the pm34a-EST p53BS. Description: Chromatin immunoprecipitation (ChIP). It is filed as cell-based, human. The conditions noted are these: HCT116 cells, 50 μg/ml 5-FU for 16 hours. The protocol:
(A) HCT116 cells stably expressing shRNA specific for p53 (sip53) or for LacZ (siLacZ) were either left untreated or treated for 16 hours with 50 μg/ml 5-FU, and then subjected to ChIP analysis with antibodies directed against p53 or HA as a control. The precipitated DNA was subjected to quantitative real-time PCR analysis with primers spanning the 5′ p53BS of the p21 gene, the putative p53BS of the pm34a-EST, or the GAPDH gene as a negative control. (B) Schematic representation of the DNA fragment (thick bar) cloned into the luciferase reporter plasmid. The positions of the p53BS and exons 1 and 2 of the pm34a-EST are also indicated. (C) The putative promoter of the pm34a-EST was cloned upstream to the firefly luciferase reporter gene in the pGL3-basic vector to yield plasmid EST-Prom-luc. EST-Prom-luc was transfected into H1299 cells without or with the indicated amounts of p53 expression plasmid. Luciferase activity was then measured by the dual luciferase assay, and normalized for Renilla luciferase activity. […]
ChIP analysis was performed as described (Minsky, 2004), employing the CM1 p53-specific polyclonal antibody or anti-HA polyclonal antibody as a control. […] Quantification of precipitated DNA was preformed by real-time qPCR, using an ABI PRISM 7300 Sequence Detection System. […]

Series [5] deals with pm34a-EST, miR-34a and p21 mRNA in H1299-TS cells. Description: qRT-PCR of p53-dependent induction in the presence of cycloheximide. It is filed as cell-based, human. The conditions noted are these: H1299-TS cells shifted to 32° C., 80 nM CHX. The protocol: (A) H1299 and 111299-TS cells were either left untreated or supplemented with 80 nM cycloheximide (CHX) for 30 min before being shifted to either 37° C. or 32° C. Cells were then incubated for the indicated time periods with continuous exposure to the drug. RNA was isolated and subjected to qRT-PCR analysis with primers specific for pm34a-EST. Values were normalized for HPRT in the same samples. (B) H1299-TS cells were processed essentially as in (A), except that CHX was added only where indicated. RNA was subjected to qRT-PCR with primers specific for mature miR-34a. Values were normalized for U6 RNA in the same samples. (C) The same RNA samples as in (B) were subjected to qRT-PCR analysis with primers specific for p21 mRNA. […]
as §1, with “For small RNAs (U6, 5S, microRNAs), 50 ng total RNA was converted to cDNA using specific primers for reverse transcription (Ambion) and MMLV reverse transcriptase.” left out, “All reactions were performed in duplicate.” left out

In series [6] the test system is p53 mRNA and p21 mRNA in U2OS cells. Description: qRT-PCR analysis of p53 mRNA and p21 mRNA after Nutlin-3. It is filed as cell-based, human. The following applies: 20 μM Nutlin-3 for 48 h, normalized to HPRT. The protocol:
(A) HCT116 cells stably expressing shRNA against p53 (sip53) or LacZ (siLacZ) were either treated with 50 μg/ml 5-FU for 16 h or left untreated. […] total RNA from each sample was subjected to qRT-PCR analysis of p21 mRNA. Results were normalized to HPRT expression in the same samples. (B) U2OS cells stably expressing shRNA against p53 (sip53) or LacZ (siLacZ) were either treated with 20 μM Nutlin-3 for 48 h or left untreated. RNA from each sample was subjected to qRT-PCR analysis of p53 mRNA and p21 mRNA. […] The modest increase in p53 mRNA (1.8 fold) has not been further investigated. (C) Western blot analysis of 20 μg total protein extracted from parallel cultures treated as in (A). […]
as §1, with “For small RNAs (U6, 5S, microRNAs), 50 ng total RNA was converted to cDNA using specific primers for reverse transcription (Ambion) and MMLV reverse transcriptase.” left out, “All reactions were performed in duplicate.” left out
A general note: Quantitative PCR measures a nucleic acid by following its amplification.

The next series deals with Bcl-2. Description: Western blot analysis of Bcl-2 protein. It is filed as cell-based, human. The following applies: H1299 or U2OS cells, 100 nM pre-miR-34a RNA oligonucleotides, three days post-transfection. Here is the method: (§2) (A) H1299 or U2OS cells were transiently transfected with 100 nM control scrambled RNA (cont) or pre-miR-34a RNA oligonucleotides (pre-34a, Ambion) using siPORT NeoFX transfection reagent (Ambion). Three days post-transfection, cell extracts were prepared. 30 μg of total protein was subjected to SDS-15% polyacrylamide gel electrophoresis followed by Western blot analysis with antibodies directed against GAPDH (MAB374, Chemicon) and Bcl-2 (C-2, Santa Cruz). (B) Total RNA was extracted from identical cultures as in (A) using the mirVana miRNA isolation kit (Ambion). RNA was converted to cDNA using random hexamers and MMLV reverse transcriptase (Promega). cDNA obtained from 10 ng total RNA was subjected to real-time PCR analysis using specific primers for Bcl-2 mRNA (forward primer—5′-[…]-3′ (SEQ ID NO: 42), reverse primer—5′-ATCAAACAGAGGCCGCATG-3′ (SEQ ID NO: 43) and super SYBR-green ready mix (Applied Biosystems) in an ABI PRISM 7300 Sequence Detection System (Applied Biosystems). Bcl-2 mRNA levels were normalized relative to GAPDH mRNA (forward primer—5′-[…]-3′ (SEQ ID NO: 44), reverse primer—5′-AAAAGCAGCCCTGGTGACC-3′) (SEQ ID NO: 45) in the same samples. RU=relative units. (C) 200 ng of total RNA obtained from (B) was subjected to quantitative real-time RT-PCR using primers for mature miR-34a. Values were normalized relative to U6 RNA levels in the same samples. […]
Background: A western blot detects proteins with antibodies after separation by electrophoresis.

The subject of a further series is Bcl-2 mRNA. Description: Real-time PCR analysis of Bcl-2 mRNA. It is filed as cell-based, human. The following applies: H1299 or U2OS cells, 100 nM pre-miR-34a RNA oligonucleotides, normalized to GAPDH mRNA. The protocol:
as §2

Consider “5′-aacaaccagctaagacactgcca-3′ (antisense AACAACCAGCTAAGACACTGCCA; LNA-modified, pattern not given here) [LNA anti-miR-34a]”, for which the “protection from apoptosis in p53 knockdown cells” value in the series on U2OS cells (U2OS cells stably expressing p53 shRNA (sip53)) was “not observed”. In addition, the spontaneous apoptosis result in the series on U2OS cells (U2OS cells, 100 nM LNA, versus scrambled oligonucleotide) is listed as “decrease in spontaneous apoptosis”. The “apoptosis due to Nutlin-3 treatment” value in the series on U2OS cells (U2OS siLacZ cells, 100 nM LNA with 20 μM Nutlin-3 for 48 hours) is on record as “partial protection”. Besides, in [1], the “expression of Hey1” value is reported as “up-regulation” and the “mRNA levels of DLL1, Jag1 or Notch1” value is listed as “no effect”. In addition, the “expression of Hey1 following p53 activation” value in series [2] (20 μM Nutlin-3 for 48 h) is “stronger effect”. Besides, in [2] (versus scrambled LNA), the “expression of Hey1” value is reported as “up-regulation” and the “mRNA levels of DLL1, Jag1 or Notch1” value is on record as “no effect”.
For `O=c1[nH]cc(F)c(=O)[nH]1` [5-FU, 5 fluorouracil], in series [3], the luciferase activity entry was “nearly twofold increase”. For the same compound, in series [4], the “p53 binding to the pm34a-EST p53BS” value is recorded as “further augmented”.
For `C[C@@H]1C[C@@H]([C@H](O)CC2CC(=O)NC(=O)C2)C(=O)[C@@H](C)C1` [CHX, cycloheximide], in series [5], the “induction of pm34a-EST or mature miR-34a” value was “did not prevent the induction” and the “p21 mRNA induction” value was “nor did it affect”.
Turning to `COc1ccc(C2=N[C@@H](c3ccc(Cl)cc3)[C@@H](c3ccc(Cl)cc3)N2C(=O)N2CCNC(=O)C2)c(OC(C)C)c1` [Nutlin-3], in series [6], the “p21 mRNA increase” value is 10.3 fold and the “p53 mRNA increase” value was 1.8 fold. The apoptosis result in the series on U2OS cells (U2OS cells, 20 μM Nutlin-3 for 48 hours) was “enhanced apoptosis”. In [2] (20 μM Nutlin-3 for 48 h), the “Jag1 and Notch1 mRNA levels” value is on record as “induction”.
Consider “miR-34a: microRNA SEQ ID NO: 1; overexpressed via pcDNA3-pm34a-EST (A172) or pre-miR-34a RNA oligonucleotides, Ambion (Bcl-2 study) (UGGCAGUGUCUUAGCUGGUUGUU; listed as RNA, chemistry not fully specified; listed as Homo sapiens)”, for which, in series [1], the “expression of Hey1” value is on record as “reduction in Hey1 mRNA” and the “mRNA levels of DLL1, Jag1 or Notch1” value is “absence of any change”. The Bcl-2 protein result in the series with Bcl-2 is “decreased”. Further, in the series on Bcl-2 mRNA, the “Bcl-2 mRNA” value is listed as “without a measurable decrease”.
